Laboratory results as given in US8193364B2, “Insecticidal N-substituted (6-haloalkylpyridin-3-yl)-alkyl sulfoximines” (Dow AgroSciences, LLC., priority 2006, dated 2012).

Key:
Assay type in all cases: in vivo
[1] = tested on: Cotton Aphid (Aphis gossypii); assay: Cotton aphid foliar spray assay on squash; conditions: 72 h, read-out: % Control of cotton aphid on squash (foliar spray)
Experimental: Squash with fully expanded cotyledon leaves were trimmed to one cotyledon per plant and infested with cotton aphid (wingless adult and nymph) 1 day prior to chemical application. Each plant was examined before chemical application to ensure proper infestation (ca. 30-70 aphids per plant). Compounds (2 mg) were dissolved in 2 ml of acetone:methanol (1:1) solvent, forming stock solutions of 1000 ppm. The stock solutions were then diluted with a diluent consisting 80 parts of 0.025% Tween 20 in H2O and 20 parts of acetone:methanol (1:1). A hand-held Devilbiss sprayer was used to apply the test solutions until runoff to both sides of the squash cotyledon leaves. Four plants (4 replications) were used for each concentration of each compound. Reference plants (solvent check) were sprayed with the diluent only. Treated plants were held in a holding room for 3 days at approximately 23° C. and 40% RH before the number of live aphids on each plant was recorded. Insecticidal activity was measured by Corrected % Control using Abbott's correction formula and presented in Table 1: Corrected % Control=100*(X−Y)/X • where X=No. of live aphids on solvent check plants • Y=No. of live aphids on treated plants

[2] = tested on: Green Leafhopper (Nephotettix sp.); assay: Green leafhopper foliar spray assay on rice
Experimental: A foliar spray assay and a root-uptake systemic assay were performed on both brown planthopper and green leafhopper. Four-week-old rice seedlings were submerged in 3-cm depth of water in the bottom portion (high 5 cm, diameter 3 cm) of a 2-part glass cylinder (high 18 cm, diameter 3 cm). A metal screen was used to hold the seedlings within the bottom portion. Scotch tape was used to bind the two portions of the cylinder after setting up the seedlings. A metal cap was used to cover the cylinder. There were 4 cylinders for each treatment. The test compound was dissolved in acetone to make a 10,000 ppm stock solution. For the foliar spray assay, this stock solution was diluted with water to make 10, 2.5, 0.31, 0.08 and 0.02 ppm test solutions. A volume of 0.5 ml of a test solution or solvent blank as check was sprayed into the glass cylinder. For systemic test, the stock solution was incorporated at final test concentrations of 10, 2.5, 0.31, 0.08 and 0.02 ppm in the water in which rice seedlings were submerged. In both foliar spray and systemic tests, five laboratory-reared 3rd instar nymphs of brown planthopper or green leafhopper were introduced into each cylinder 3 hr after insecticide application. The treated test units were kept in a growth chamber with conditions set as followings: Temperature 28±0.5° C.; Relative humidity 70±0.5%; Photoperiod […].

[3] = tested on: Green Peach Aphid (Myzus persicae); assay: Green peach aphid root uptake assay on pepper; conditions: 3 days after infestation
Experimental: Systemic activity of compound 2 against green peach aphid was evaluated in a root uptake assay. Bell peppers (Capsicum annum var. California Wonder) was used as test plant seeded and grown in rock wool plugs. Plants were grown to expanding 1st true leaf stage. The rock wool plugs containing individual plants were placed in 1-ounce cups and surrounded with white clean sand. Five plants were used for each treatment. Stock solution of 1000 ppm was made by dissolving 2 mg of technical test compound in 2 mL acetone. The highest test concentration (10 ppm, 0.05 mg/5 ml) was prepared by diluting 0.32 mL stock solution with 1.6 mL acetone and 30.08 mL DI water, containing 6% acetone. Lower test concentrations were prepared by sequentially diluting 6.5 mL higher concentration (start from the 10 ppm test solution) with 26.0 ml acetone:DI water (6:94). A volume of 5 mL was applied to each cup (each plant). Use 6% acetone in water as solvent check. After insecticide application, the seedlings were infested with green peach aphids and held in a growth chamber (25° C., 50 R.H, 16 hr light: 8 hr drak). Number of live aphid on each plant was counted at 3 days after infestation. Calculations for % control were based on a corrected basis compared to the populations on the solvent check plants. Corrected % Control=100*(X−Y)/X • where X=No. of live aphids on solvent check plants • Y=No. of live aphids on treated plants The Corrected % Control values from lower test rates are given in Table 6.

[4] = tested on: Eastern Subterranean Termite (Reticulitermes flavipes); assay: Eastern subterranean termite filter paper assay
Experimental: Activity of Compound 2 was evaluated for its activity on Eastern subterranean termite. Technical material of the test compound was formulated in acetone on a wt/wt basis to deliver 1000, 500, 200, 50, 12.5, 3.12 and 0.78 ppm to 42.5 mm Whatman No. 1 filter papers per 200 ul of pipetted solution. Each test concentration was applied to six filter papers (6 reps). Six acetone-only control units and six DI water-only control units were also prepared. The filter papers were dried overnight in the fume hood before they were placed into 60×15 mm Fisher Brand plastic Petri dishes. A volume of 200 ul DI water was pipetted onto each filter paper at the time of test set-up, just prior to infesting with termites. Ten worker termites were added to each Petri dish and covered. The infested Petri dishes were put in the laboratory Conviron at 28° C. and 60% RH. Termite mortality was recorded at 1, 2, 4, 7, and 10 days after infestation (DAI). Throughout the duration of the test, an average of 150 ul of DI water was added daily to the filter papers to retain moisture.

In the case of `CC(c1ccc(C(F)(F)F)nc1)S(C)(=O)=NC#N` (stereo not drawn) [Compound 2, [1-(6-trifluoromethylpyridin-3-yl)ethyl](methyl)-oxido-λ^4-sulfanylidenecyanamide], the pest or weed control at 0.049 ppm [1] is reported as 90 to 100%, the pest or weed control at 0.195 ppm [1] is reported as 90 to 100% and the pest or weed control at 0.781 ppm [1] is reported as 90 to 100%. For the same molecule, the pest or weed control at 3.13 ppm [1] was 90 to 100%, the “% Control at ppm against green leafhopper” value (shortened to “% Control at ppm”) ([2]; 0.02 ppm) was “D (60-69)” and the “% Control at ppm” value ([2]; 0.08 ppm) was “A (90-100)”. For the same molecule, the “% Control at ppm” value ([2]; 0.31 ppm) was “A (90-100)”, the “% Control at ppm” value ([2]; 2.5 ppm) was “A (90-100)” and the “% Control at ppm” value ([2]; 10 ppm) was “A (90-100)”. For the same molecule, the “% Control, root uptake systemic, green peach aphid on pepper” value (“% Control, root uptake systemic” below) ([3]; 0.08 ug/plant) was 61%, the “% Control, root uptake systemic” value ([3]; 0.4 ug/plant) was 95% and the “% Control, root uptake systemic” value ([3]; 2 ug/plant) was 100%. For the same molecule, the “% Control, root uptake systemic” value ([3]; 10 ug/plant) was 100%, the mortality at 0.78 ppm ([4]; 1 DAI) was 7% and the mortality at 0.78 ppm ([4]; 2 DAI) was 17%. For the same molecule, the mortality at 0.78 ppm ([4]; 4 DAI) was 58%, the mortality at 0.78 ppm ([4]; 7 DAI) was 73% and the mortality at 0.78 ppm ([4]; 10 DAI) was 80%. The mortality at 3.13 ppm ([4]; 1 DAI) was 25%, the mortality at 3.13 ppm ([4]; 2 DAI) was 48% and the mortality at 3.13 ppm ([4]; 4 DAI) was 67%. For the same molecule, the mortality at 3.13 ppm ([4]; 7 DAI) was 83%, the mortality at 3.13 ppm ([4]; 10 DAI) was 87% and the mortality at 12.5 ppm ([4]; 1 DAI) was 48%. It also gave a mortality at 12.5 ppm ([4]; 2 DAI) of 67%, a mortality at 12.5 ppm ([4]; 4 DAI) of 90% and a mortality at 12.5 ppm ([4]; 7 DAI) of 100%. The mortality at 12.5 ppm ([4]; 10 DAI) was 100%, the mortality at 50 ppm ([4]; 1 DAI) was 55% and the mortality at 50 ppm ([4]; 2 DAI) was 72%. The mortality at 50 ppm ([4]; 4 DAI) was 98%, the mortality at 50 ppm ([4]; 7 DAI) was 100% and the mortality at 50 ppm ([4]; 10 DAI) was 100%. It also gave a mortality at 200 ppm ([4]; 1 DAI) of 55%, a mortality at 200 ppm ([4]; 2 DAI) of 72% and a mortality at 200 ppm ([4]; 4 DAI) of 80%. It also gave a mortality at 200 ppm ([4]; 7 DAI) of 100%, a mortality at 200 ppm ([4]; 10 DAI) of 100% and a mortality at 500 ppm ([4]; 1 DAI) of 63%. For the same molecule, the mortality at 500 ppm ([4]; 2 DAI) was 82%, the mortality at 500 ppm ([4]; 4 DAI) was 98% and the mortality at 500 ppm ([4]; 7 DAI) was 100%. The mortality at 500 ppm ([4]; 10 DAI) was 100%, the mortality at 1000 ppm ([4]; 1 DAI) was 87% and the mortality at 1000 ppm ([4]; 2 DAI) was 90%. For the same molecule, the mortality at 1000 ppm ([4]; 4 DAI) was 100%, the mortality at 1000 ppm ([4]; 7 DAI) was 100% and the mortality at 1000 ppm ([4]; 10 DAI) was 100%.
